The source of these data is ChEMBL document CHEMBL5252563, “Structure-activity relationship studies of anti-bunyaviral cap-dependent endonuclease inhibitors” (Bioorg Med Chem Lett, 2023).

The term fraction unbound denotes the share of the substance not bound to proteins or other matrix. A low value points to extensive binding. The AUC is concentration integrated over time. The low end stands for less exposure, the high end for more exposure. The term EC50 denotes the concentration at which the effect is half-maximal. For orientation: bioavailability means the share of a dose that reaches the circulation, judged against a reference dose that is usually intravenous.

Each structure is given as a SMILES string. Some results are limits rather than exact numbers.

Data set [1] is described as follows: Metabolic stability in rat liver microsomes. The data set is classed as ADME, Microsome. A general note: Liver microsomes are vesicles of endoplasmic reticulum, rich in cytochrome P450 enzymes.
Data set [2] can be described thus: Unbound fraction in rat serum at 2 umol/kg, po or 1 umol/kg, iv administered as cassette dose. The data set is classed as ADME, organism-based. Particulars: at 2 µmol/kg.
The nature of data set [3]: AUC in rat at 1 umol/kg, iv administered as cassette dose. The format is ADME, organism-based. Further details: dose 1 µmol/kg, route iv. Particulars: in vivo.
Data set [4] can be described thus: Metabolic stability in human liver microsomes. The data set is classed as ADME, Microsome.
Data set [5] concerns Mammarenavirus choriomeningitidis. The data set can be described thus: Antiviral activity against Lymphocytic choriomeningitis virus. The format is functional, organism-based.
Data set [6] in a line: Elimination half-life in rat at 2 umol/kg, po or 1 umol/kg, iv administered as cassette dose. The format is ADME, organism-based. Particulars: in vivo, dose 2 µmol/kg, read-out: LambdaZ (converted).
In data set [7] the test system is Mammarenavirus choriomeningitidis. The data set can be described thus: Potency index, ratio of ribavirin EC50 to test compound EC50 for antiviral activity against Lymphocytic choriomeningitis virus. The data set is classed as functional.
Data set [8] is described as follows: Bioavailability in rat at 2 umol/kg, po or 1 umol/kg, iv administered as cassette dose. The data set is classed as ADME, organism-based. Particulars: in vivo, at 2 µmol/kg.
The subject of data set [9] is Junin virus. Kind of data set: Antiviral activity against Junin virus. The data set is classed as functional, organism-based. The conditions noted are these: Mammarenavirus juninense.
Data set [10] concerns Junin virus. The data set can be described thus: Potency index, ratio of ribavirin EC50 to test compound EC50 for antiviral activity against Junin virus. The format is functional, Mammarenavirus juninense.

Turning to `CC(C)N1CN(C2c3ccccc3CCc3ccccc32)n2cc(C(=O)O)c(=O)c(O)c2C1=O`, the results for the Stability in data set [1] and in data set [4] were 81.8% and 107%, respectively. Further, the fraction unbound in data set [2] was found to be 0.00293. The same compound returned an AUC in [3] of 0.928 µM·h. Further, the EC50 in data set [5] came to 0.0045 µM; with Junin virus [9] it was 0.0024 µM. The half-life in data set [6] is 2 h. The “Ratio EC50” value (in data set [7]; in the data set with Junin virus [10]) was 1000 throughout. In [8], this compound registered a bioavailability of 10.1%.
As for `CC(C)N1CN(Cc2ccccc2)n2cc(C(=O)O)c(=O)c(O)c2C1=O`, the 50% effective concentration (EC50) (in data set [5]; in the data set on Junin virus [9]) was above 1 µM throughout.
As to `O=C1c2c(O)c(=O)c(-c3nnn[nH]3)cn2N(C2c3ccccc3CCc3ccccc32)CN1CC1CC1`, the values for the EC50 (in [5]; with Junin virus [9]) were 0.127 µM and above 1 µM, respectively.
On the same counts, the results for `O=C(O)c1cn2c(c(O)c1=O)C(=O)N(C1CC1)CN2C1c2ccccc2CCc2ccccc21` are 0.0078 µM and 0.0134 µM.
In the case of `COC(=O)c1cn2c(c(O)c1=O)C(=O)N(CC1CC1)CN2C1c2ccccc2CCc2ccccc21`, the results for the concentration giving a half-maximal response (EC50) (in data set [5]; with Junin virus [9]) were 0.305 µM and 0.271 µM, respectively.
On to `O=C(NO)c1cn2c(c(O)c1=O)C(=O)N(CC1CC1)CN2C1c2ccccc2CCc2ccccc21`, for which the half-maximal effective concentration (EC50) in data set [5] is 0.109 µM; in the data set on Junin virus [9] it was 0.12 µM.
On the same counts, the results for `Cc1ccc2c(c1)C(N1CN(C(C)C)C(=O)c3c(O)c(=O)c(C(=O)O)cn31)c1cc(C)ccc1CC2` are 0.1 µM and 0.176 µM.
For the compound `CC(C)N1CN(Cc2ccccc2-c2ccccc2)n2cc(C(=O)O)c(=O)c(O)c2C1=O`, the results for the 50% effective concentration (EC50) (in data set [5]; in the data set on Junin virus [9]) were 0.499 µM and 0.437 µM, respectively.
With `CN1CN(C2c3ccccc3CCc3ccccc32)n2cc(C(=O)O)c(=O)c(O)c2C1=O`, the concentration giving a half-maximal response (EC50) in [5] turned out to be 0.024 µM; with Junin virus [9], 0.0092 µM.
Taken in the same sequence, the figures for `NC(=O)c1ncn([C@@H]2O[C@H](CO)[C@@H](O)[C@H]2O)n1` [RIBAVIRIN] were 3.5 µM and 2.5 µM.
Turning to `O=C(O)c1cn2c(c(O)c1=O)C(=O)N(CC1CCCC1)CN2C1c2ccccc2CCc2ccccc21`, the values for the EC50 (in data set [5]; in the data set on Junin virus [9]) were 0.017 µM and 0.025 µM, respectively.
On to `O=C(O)c1cn2c(c(O)c1=O)C(=O)N(CC1CCCCC1)CN2C1c2ccccc2CCc2ccccc21`, for which the EC50 stood at 0.015 µM in data set [5] and 0.02 µM in the data set on Junin virus [9].
As to `COCCN1CN(C2c3ccccc3CCc3ccccc32)n2cc(C(=O)O)c(=O)c(O)c2C1=O`, the half-maximal effective concentration (EC50) in data set [5] stood at 0.0053 µM; in the data set with Junin virus [9], 0.005 µM.
For `CC(C)N1CN(C2c3ccccc3CSc3ccccc32)n2cc(C(=O)O)c(=O)c(O)c2C1=O` (stereo not drawn), the EC50 in data set [5] came out at 0.008 µM; in the data set on Junin virus [9], 0.0036 µM. The “Ratio EC50” value (in [7]; in the data set on Junin virus [10]) was 1000 each time.
Turning to `O=C(Nc1nnn[nH]1)c1cn2c(c(O)c1=O)C(=O)N(CC1CC1)CN2C1c2ccccc2CCc2ccccc21`, the figures for the EC50 (in [5]; with Junin virus [9]) were 0.284 µM and 0.404 µM, respectively.
In the case of `O=C(O)c1cn2c(c(O)c1=O)C(=O)N(CC1CC1)CN2C1c2ccccc2CCc2ccccc21`, the figures for the Stability in data set [1] and in data set [4] were 95.3% and 100%, respectively. In data set [2], this compound showed a fraction unbound of 0.0136. The same compound registered an area under the curve (AUC) in [3] of 1.47 µM·h. Besides, the EC50 was 0.0041 µM in [5] and 0.0058 µM with Junin virus [9]. For the same compound, the half-life in [6] was 1.5 h. Besides, in data set [8], the bioavailability is 8.2%.
Turning to `O=C1c2c(O)c(=O)c(-c3noc(=O)[nH]3)cn2N(C2c3ccccc3CCc3ccccc32)CN1CC1CC1`, the concentration giving a half-maximal response (EC50) was 0.119 µM in data set [5] and 0.189 µM with Junin virus [9].
In the case of `CCN(CC)CCN1CN(C2c3ccccc3CCc3ccccc32)n2cc(C(=O)O)c(=O)c(O)c2C1=O`, the EC50 (in data set [5]; with Junin virus [9]) was above 1 µM in each case.
As to `Cc1cccc2c1CCc1c(C)cccc1C2N1CN(C(C)C)C(=O)c2c(O)c(=O)c(C(=O)O)cn21`, the concentration for a half-maximal effect (EC50) in [5] was determined as 0.0017 µM; in the data set on Junin virus [9], 0.0031 µM.
Turning to `Cc1ccc2c(c1)CCc1cc(C)ccc1C2N1CN(C(C)C)C(=O)c2c(O)c(=O)c(C(=O)O)cn21`, the EC50 came to 0.013 µM in [5] and 0.034 µM in the data set on Junin virus [9].
As to `CCN1CN(C2c3ccccc3CCc3ccccc32)n2cc(C(=O)O)c(=O)c(O)c2C1=O`, the EC50 in data set [5] was found to be 0.0062 µM; in the data set with Junin virus [9], 0.0033 µM.
